This passage reports IC50, EC50 and inhibition results from patent US20070072897A1, “Phenylaminopropanol derivatives and methods of their use” (Wyeth, priority 2005, published 2007).

Structures can show the parent of a compound that is named as a salt.

One experiment addresses T1, human 5-HT2A receptor (Homo sapiens, UniProt P28223).
T1 construct: expressed in transfected cells; host or cells: CHO
In words: 5-HT2A FLIPR assay (calcium response to DOI) in CHO cells. The note with it: for IC50: antagonist inhibition of 3 nM DOI stimulation, CHO cells, FLIPR; for inhibition at 1 µM: CHO, read-out: 5-HT2A Percentage inhibition at 1 μM. The experiment is classed as cell-based. As to the method: Cells are washed with PBS without Ca^2+ and 3 mL Trypsin is added to dissociate cells. After 3 minute incubation, 7 mL Trypsin Neutralizing Solution is added. Cells are then aspirated from flask and mixed in a 50 mL conical tube. 10 μL sample is used to count cells on a hemacytometer. […] Two 96-well drug plates are prepared for each cell plate. Plate 1 will contain compounds to be tested and plate 2 will contain the agonist DOI (3 nM) to activate a calcium response. Specific details of compound preparation are listed below. […] Outside wells are not used due to an edge effect seen in these cells. The reference compounds DOI and 5-HT are used as standard 5HT agonists. […] Standards for plate one are Vehicle, 1 μM DOI, and 3 nM MDL. […] On the day of the assay, test compound solutions of appropriate concentrations are diluted in assay buffer as described for single concentration testing. This procedure is followed to ensure that the solvent concentration is consistent across dilutions. The typical concentration testing range of compounds is 10^−10—10^−5 M in half log or full log increments. A 10 μM DOI stock is diluted to 60 nM and added to the respective wells. The pipeting station of the FLIPR will make an additional 20-fold dilution for a final concentration of 3 nM. Standards for this plate include Vehicle and 3 nM DOI. Contents of dye vial (Molecular Devices #R8090) are dissolved in 100 mL of 1×HBSS supplemented with 20 mM HEPES. Aliquots can be frozen at −20° C. for up to one week for future use. On the day of assay, dye is thawed and diluted to half concentration. […] Cells are allowed to adhere for 24 hours in 96-well plates. […] Cell, compound and DOI plates are loaded into the FLIPR machine. The baseline fluorescence level is read once every second for 1 minute. Compound (10 μL) is transferred from the compound plate to the cells and the fluorescence level recorded every 6 seconds for 2 minutes to determine any agonist activity. Baseline fluorescence is recorded again every second for 10 seconds. For antagonist determination, 10 μL of 3 nM DOI is transferred from the DOI plate to the cells and the fluorescence level recorded every 6 seconds for 5 minutes. The pipetting unit of the FLIPR machine completes all transfers. […] The data are log transformed prior to analysis.

In the next experiment the target is T2, human hNET (Homo sapiens, UniProt P23975).
T2 construct: expressed in transfected cells; host or cells: MDCK (MDCK-Net6)
T2 sequence (P23975 whole entry): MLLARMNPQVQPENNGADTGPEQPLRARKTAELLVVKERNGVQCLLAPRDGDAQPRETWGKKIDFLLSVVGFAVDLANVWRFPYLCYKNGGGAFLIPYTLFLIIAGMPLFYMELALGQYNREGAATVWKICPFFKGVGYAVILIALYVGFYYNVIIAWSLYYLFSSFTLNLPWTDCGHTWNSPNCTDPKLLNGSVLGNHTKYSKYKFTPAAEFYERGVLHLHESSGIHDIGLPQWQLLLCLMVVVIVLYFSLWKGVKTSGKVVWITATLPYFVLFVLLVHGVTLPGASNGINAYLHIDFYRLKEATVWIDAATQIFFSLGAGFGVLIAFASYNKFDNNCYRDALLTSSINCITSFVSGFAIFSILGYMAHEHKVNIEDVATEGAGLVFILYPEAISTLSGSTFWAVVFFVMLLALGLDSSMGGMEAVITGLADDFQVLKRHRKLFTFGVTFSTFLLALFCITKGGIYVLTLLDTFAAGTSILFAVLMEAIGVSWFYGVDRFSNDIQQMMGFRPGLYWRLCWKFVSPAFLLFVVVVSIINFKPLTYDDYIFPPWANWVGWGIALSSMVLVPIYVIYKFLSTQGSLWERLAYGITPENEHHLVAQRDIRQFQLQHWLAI
Nature of the experiment: Norepinephrine (NE) uptake assay in MDCK-Net6 cells. Conditions: [3H]NE uptake; for EC50: MDCK-Net6 cells stably transfected with hNET; for inhibition at 1 µM: MDCK-Net6 cells, read-out: hNET Percentage inhibition at 1 μM. The experiment is classed as cell-based.

T1 sequence (P28223 whole entry): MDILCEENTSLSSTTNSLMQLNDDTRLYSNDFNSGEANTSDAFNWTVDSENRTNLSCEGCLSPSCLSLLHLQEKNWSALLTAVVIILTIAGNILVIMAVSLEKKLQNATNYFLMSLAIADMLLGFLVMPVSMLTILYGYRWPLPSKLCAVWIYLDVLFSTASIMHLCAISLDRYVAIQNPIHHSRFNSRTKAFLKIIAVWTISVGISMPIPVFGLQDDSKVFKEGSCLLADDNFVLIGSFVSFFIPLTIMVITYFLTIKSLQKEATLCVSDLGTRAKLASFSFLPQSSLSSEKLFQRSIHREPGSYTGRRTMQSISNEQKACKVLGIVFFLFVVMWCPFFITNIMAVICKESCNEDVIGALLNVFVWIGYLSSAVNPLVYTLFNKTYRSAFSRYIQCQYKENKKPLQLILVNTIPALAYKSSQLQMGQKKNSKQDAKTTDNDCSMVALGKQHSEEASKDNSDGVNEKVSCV

For the compound `CNC[C@@H](O)[C@H](c1ccccc1)N1C(=O)C2(CCCCC2)c2ccc(Cl)cc21` [Example 28, 6′-Chloro-1′-[(1S,2R)-2-hydroxy-3-(methylamino)-1-phenylpropyl]spiro[cyclohexane-1,3′-indol]-2′(1′H)-one hydrochloride], the IC50 on human 5-HT2A receptor turned out to be 213 nM. The compound also showed an EC50 on human hNET of 448 nM.

For `CNC[C@@H](O)[C@H](c1ccccc1)N1C(=O)C2(CCCCC2)c2ccc(F)cc21` [Example 29, 6′-fluoro-1′-[(1S,2R)-2-hydroxy-3-(methylamino)-1-phenylpropyl]spiro[cyclohexane-1,3′-indol]-2′(1′H)-one hydrochloride], on human 5-HT2A receptor, the 50% inhibitory concentration (IC50) stood at 106 nM. The compound further displayed a half-maximal effective concentration (EC50) on human hNET of 43 nM.

On to `CNC[C@@H](O)[C@H](c1ccccc1)N1C(=O)C2(CCCCC2)c2cc(F)ccc21` [Example 30, 5′-fluoro-1′-[(1S,2R)-2-hydroxy-3-(methylamino)-1-phenylpropyl]spiro[cyclohexane-1,3′-indol]-2′(1′H)-one hydrochloride], for which the IC50 at human 5-HT2A receptor was 283 nM. This compound registered an EC50 on human hNET of 41 nM.

Consider `CNC[C@@H](O)[C@H](c1ccccc1)N1C(=O)C2(CCCCC2)c2cccc(Cl)c21` [Example 31, 7′-Chloro-1′-[(1S,2R)-2-hydroxy-3-(methylamino)-1-phenylpropyl]spiro[cyclohexane-1,3′-indol]-2′(1′H)-one hydrochloride], for which, on human 5-HT2A receptor, the half-inhibitory concentration (IC50) was 203 nM. Besides, the half-maximal effective concentration (EC50) on human hNET was 32 nM.

With `CNC[C@@H](O)[C@H](c1cccc(F)c1)N1C(=O)C2(CCCCC2)c2ccc(F)cc21` [Example 32, 6′-fluoro-1′-[(1S,2R)-1-(3-fluorophenyl)-2-hydroxy-3-(methylamino)propyl]spiro[cyclohexane-1,3′-indol]-2′(1′H)-one hydrochloride], the inhibition at 1 µM on human 5-HT2A receptor was found to be 95%. On human hNET, this compound registered an EC50 of 43 nM.

Take `CNC[C@@H](O)[C@H](c1ccccc1)N1CC2(CCCCC2)c2ccccc21` [Example 33, (1S,2R)-3-(methylamino)-1-phenyl-1-spiro[cyclohexane-1,3′-indol]-1′(2′H)-ylpropan-2-ol hydrochloride]: the inhibition at 1 µM on human 5-HT2A receptor came to 13%. Besides, the EC50 at human hNET is 29 nM.

`CNC[C@@H](O)[C@H](c1ccccc1)n1ccc2cc(NC(=O)c3ccc(C)c(Cl)c3)ccc21` [Example 71, 3-chloro-N-{1-[(1S,2R)-2-hydroxy-3-(methylamino)-1-phenylpropyl]-1H-indol-5-yl}-4-methylbenzamide hydrochloride]: the inhibition at 1 µM on human 5-HT2A receptor was 44%. For the same compound, on human hNET, the concentration giving a half-maximal response (EC50) is 92 nM.

For `CNC[C@@H](O)[C@H](c1ccccc1)N1CCc2cc(NC(=O)c3cccc(Cl)c3)ccc21` [Example 72, 3-Chloro-N-{1-[(1S,2R)-2-hydroxy-3-(methylamino)-1-phenylpropyl]-2,3-dihydro-1H-indol-5-yl}benzamide hydrochloride], the inhibition at 1 µM at human 5-HT2A receptor was determined as 60%. The same compound came in with an EC50 on human hNET of 95 nM.

On to `CNC[C@@H](O)[C@H](c1ccccc1)n1ccc2cc(NC(=O)c3cccc(Cl)c3)ccc21` [Example 73, 3-Chloro-N-{1-[(1S,2R)-2-hydroxy-3-(methylamino)-1-phenylpropyl]-1H-indol-5-yl}benzamide hydrochloride], for which the half-maximal inhibitory concentration (IC50) at human 5-HT2A receptor worked out at 625 nM. The midpoint of the response on human hNET, the EC50, lay at 91 nM.

With `CNC[C@@H](O)[C@H](c1ccccc1)N1CCc2cc(NC(=O)c3ccccc3)ccc21` [Example 74, N-{1-[(1S,2R)-2-Hydroxy-3-(methylamino)-1-phenylpropyl]-2,3-dihydro-1H-indol-5-yl}benzamide hydrochloride], the inhibition at 1 µM at human 5-HT2A receptor was 24%. The compound also displayed a concentration for a half-maximal effect (EC50) on human hNET of 365 nM.

Regarding `CNC[C@@H](O)[C@H](c1ccccc1)n1ccc2cc(NC(=O)c3ccccc3)ccc21` [Example 75, N-{1-[(1S,2R)-2-Hydroxy-3-(methylamino)-1-phenylpropyl]-1H-indol-5-yl}benzamide hydrochloride], the inhibition at 1 µM at human 5-HT2A receptor was found to be 34%. On human hNET, this compound displayed an EC50 of 299 nM.

On to `CNC[C@@H](O)[C@H](c1ccccc1)N1CCc2cc(NC(=O)C3CCCCC3)ccc21` [Example 76, N-{1-[(1S,2R)-2-Hydroxy-3-(methylamino)-1-phenylpropyl]-2,3-dihydro-1H-indol-5-yl}cyclohexanecarboxamide hydrochloride], for which the inhibition at 1 µM at human 5-HT2A receptor was 45%; at human hNET, 54%.

With `CNC[C@@H](O)[C@H](c1ccccc1)n1ccc2cc(NC(=O)C3CCCCC3)ccc21` [Example 77, N-{1-[(1S,2R)-2-Hydroxy-3-(methylamino)-1-phenylpropyl]-1H-indol-5-yl}cyclohexanecarboxamide hydrochloride], the results for the inhibition at 1 µM on human 5-HT2A receptor and on human hNET were 51% and 60%, respectively.

`CNC[C@@H](O)[C@H](c1ccccc1)N1CCc2cc(C(=O)Nc3cccc(Cl)c3)ccc21` [Example 78, N-(3-Chlorophenyl)-1-[(1S,2R)-2-hydroxy-3-(methylamino)-1-phenylpropyl]indoline-5-carboxamide hydrochloride]: on human 5-HT2A receptor, the IC50 came out at 691 nM. Also, on human hNET, the EC50 stood at 362 nM.

Take `CNC[C@@H](O)[C@H](c1ccccc1)n1ccc2cc(C(=O)Nc3cccc(Cl)c3)ccc21` [Example 79, N-(3-Chlorophenyl)-1-[(1S,2R)-2-hydroxy-3-(methylamino)-1-phenylpropyl]-1H-indole-5-carboxamide hydrochloride]: the 50% inhibitory concentration (IC50) at human 5-HT2A receptor worked out at 84 nM. For the same compound, the EC50 at human hNET stood at 328 nM.

With `CNC[C@@H](O)[C@H](c1ccccc1)n1ccc2ccc(Oc3ccccc3)cc21` [Example 80, (1S,2R)-3-(methylamino)-1-(6-phenoxy-1H-indol-1-yl)-1-phenylpropan-2-ol hydrochloride], the inhibition at 1 µM was determined as 32% at human 5-HT2A receptor and 12% on human hNET.

With `CNC[C@@H](O)[C@H](c1ccccc1)n1ccc2cccc(Oc3ccccc3)c21` [Example 81, (1S,2R)-3-(methylamino)-1-(7-phenoxy-1H-indol-1-yl)-1-phenylpropan-2-ol hydrochloride], the IC50 at human 5-HT2A receptor is 372 nM. The same compound came in with an EC50 on human hNET of 1020 nM.

As for `NC[C@@H](O)[C@H](c1ccccc1)n1ccc2cc(OCc3ccccc3)ccc21` [Example 82, (1S,2R)-3-amino-1-[5-(benzyloxy)-1H-indol-1H-yl]-1-phenylpropan-2-ol hydrochloride], at human 5-HT2A receptor, the half-inhibitory concentration (IC50) is 796 nM. At human hNET, this compound displayed an EC50 of 279 nM.

For `CCNC[C@@H](O)[C@H](c1ccccc1)n1ccc2cc(OCc3ccccc3)ccc21` [Example 83, (1S,2R)-1-[5-(benzyloxy)-1H-indol-1-yl]-3-(ethylamino)-1-phenylpropan-2-ol hydrochloride], the half-maximal inhibitory concentration (IC50) on human 5-HT2A receptor was 380 nM. Also, the inhibition at 1 µM on human hNET is 43%.

Turning to `CCCNC[C@@H](O)[C@H](c1ccccc1)n1ccc2cc(OCc3ccccc3)ccc21` [Example 84, (1S,2R)-1-[5-(benzyloxy)-1H-indol-1-yl]-1-phenyl-3-(propylamino)propan-2-ol hydrochloride], the inhibition at 1 µM on human 5-HT2A receptor was determined as 50%; on human hNET it was 11%.

Turning to `CC(C)NC[C@@H](O)[C@H](c1ccccc1)n1ccc2cc(OCc3ccccc3)ccc21` [Example 85, (1S,2R)-1-[5-(benzyloxy)-1H-indol-1-yl]-3-(isopropylamino)-1-phenylpropan-2-ol hydrochloride], the figures for the inhibition at 1 µM on human 5-HT2A receptor and at human hNET were 32% and 4%, respectively.

By IC50 is commonly meant the concentration at which inhibition is half-maximal. Broadly, the EC50 is the concentration giving half of the maximal effect. Read a high EC50 as lower potency in that assay. What is called inhibition is the relative decrease from the control value, in per cent.
